Structures can show the parent of a compound that is named as a salt. Where two headings read alike, the source gives them in different places.
Tested on: panel of 240 cancer cell lines
Experiment: Proliferation in a broad panel of 240 cancer cell lines, 2D culture (Eurofins Panlabs Oncopanel)
Assay type: cell-based
Description: Cell lines used in these experiments were obtained from the following sources and were cultured according to conditions specified by the respective cell banks. […] The cell lines listed above were tested for mycoplasma and were negative. Cells were authenticated by STR method or vendor protocols. All 313 cell lines in the CRIPSR pooled screen were purchased from commercial vendors and were STR authenticated and mycoplasma negative. A broad panel of cancer cell lines was screened in the Eurofins Oncopanel. All cells in this panel were mycoplasma negative and STR verified.

Measured: IC50

NC1CCC(S(=O)(=O)N2C3CCC2CC(NC(=O)c2cc(C4CC4)on2)C3)CC1 [EPZ028862, N-((1R,3R,5S)-8-((1r,4R)-4-aminocyclohexylsulfonyl)-8-aza-bicyclo[3.2.1]octan-3-yl)-5-cyclopropylisoxazole-3-carboxamide hydrochloride]
> 25 µM: Homo sapiens, LS174T, LS-174T, Colon/GI, read-out: IC50 | Homo sapiens, LS-1034, LS1034, Colon/GI, read-out: IC50 | Homo sapiens, MC-IXC, CNS, read-out: IC50 | Homo sapiens, MCF7, MCF7, Breast, read-out: IC50 | Homo sapiens, MDA-MB-231, MDA MB 231, Breast, read-out: IC50 | Homo sapiens, MDA-MB-436, MDA-MB-436, Breast, read-out: IC50 | Homo sapiens, MDA-MB-453, MDA MB 453, Breast, read-out: IC50 | Homo sapiens, MDA-MB-468, MDA MB 468, Breast, read-out: IC50 | Homo sapiens, MEG-01, MEG01, Haematopoietic and lymphoid, read-out: IC50 | Homo sapiens, MES-SA, Soft Tissue, read-out: IC50 | Homo sapiens, MG-63, MG-63, Soft Tissue, read-out: IC50 | Homo sapiens, MHH-PREB-1, MHH-PREB-1, Haematopoietic and lymphoid, read-out: IC50 | Homo sapiens, MIA PaCa-2, Mia PaCa-2, Pancreas, read-out: IC50 | Homo sapiens, MOLT-3, MOLT-3, Haematopoietic and lymphoid, read-out: IC50 | Homo sapiens, MOLT-16, MOLT-16, Haematopoietic and lymphoid, read-out: IC50 | Homo sapiens, MV4-11, MV-4-11, Haematopoietic and lymphoid, read-out: IC50 | Homo sapiens, Malme-3M, MALME3M, Skin, read-out: IC50 | Homo sapiens, MeWo, Skin, read-out: IC50 | Homo sapiens, NALM-6, NALM-6, Haematopoietic and lymphoid, read-out: IC50 | Homo sapiens, NCI-H69, NCI-H69, Lung, read-out: IC50 | Homo sapiens, NCI-H292, NCI-H292, Lung, read-out: IC50 | Homo sapiens, NCI-H295R, Endocrine, read-out: IC50 | Homo sapiens, NCI-H441, NCIH441, Lung, read-out: IC50 | Homo sapiens, NCI-H446, NCIH446, Lung, read-out: IC50 | Homo sapiens, NCI-H460, NCI-H460, Lung, read-out: IC50 | Homo sapiens, NCI-H508, NCI-H508, Colon/GI, read-out: IC50 | Homo sapiens, NCI-H520, NCI-H520, Lung, read-out: IC50 | Homo sapiens, NCI-H596, NCI-H596, Lung, read-out: IC50 | Homo sapiens, NCI-H661, NCI-H661, Lung, read-out: IC50 | Homo sapiens, NCI-H747, NCI-H747, Colon/GI, read-out: IC50 | Homo sapiens, OE19, OE19, Head and Neck, read-out: IC50 | Homo sapiens, OE33, OE33, Head and Neck, read-out: IC50 | Homo sapiens, OVCAR-3, OVCAR3, Female GU, read-out: IC50 | Homo sapiens, PANC-1, PANC-1, Pancreas, read-out: IC50 | Homo sapiens, RKOE6, RKOE6, Colon/GI, read-out: IC50 | Homo sapiens, RL95-2, RL95-2, Female GU, read-out: IC50 | Homo sapiens, RPMI-6666, RPMI 6666, Haematopoietic and lymphoid, read-out: IC50 | Homo sapiens, RPMI-7951, RPMI-7951, Skin, read-out: IC50 | Homo sapiens, RPMI-8226, RPMI 8226, Haematopoietic and lymphoid, read-out: IC50 | Homo sapiens, Raji, Haematopoietic and lymphoid, read-out: IC50 | Homo sapiens, Ramos, Ramos (RA 1), Haematopoietic and lymphoid, read-out: IC50 | Homo sapiens, SAOS-2, SaOS2, Soft Tissue, read-out: IC50 | Homo sapiens, SCC-4, SCC-4, Head and Neck, read-out: IC50 | Homo sapiens, SCC-9, SCC-9, Head and Neck, read-out: IC50 | Homo sapiens, SCC-25, SCC-25, Head and Neck, read-out: IC50 | Homo sapiens, SCaBER, Bladder, read-out: IC50 | Homo sapiens, SHP77, SHP-77, Lung, read-out: IC50 | Homo sapiens, SJRH30, SJRH30, Soft Tissue, read-out: IC50 | Homo sapiens, SJSA-1, SJSA1, Soft Tissue, read-out: IC50 | Homo sapiens, SK-BR-3, SK-BR-3, Breast, read-out: IC50 | Homo sapiens, SK-LMS-1, SK-LMS-1, Soft Tissue, read-out: IC50 | Homo sapiens, SK-MEL3, SK-MEL-3, Skin, read-out: IC50 | Homo sapiens, SK-MEL-1, SK-MEL-1, Skin, read-out: IC50 | Homo sapiens, SK-MEL-28, SK-MEL-28, Skin, read-out: IC50 | Homo sapiens, SK-MES-1, SKMES1, Lung, read-out: IC50 | Homo sapiens, SK-N-AS, CNS, read-out: IC50 | Homo sapiens, SK-N-DZ, CNS, read-out: IC50 | Homo sapiens, SK-N-FI, CNS, read-out: IC50 | Homo sapiens, SK-NEP-1, SK-NEP-1, Kidney, read-out: IC50 | Homo sapiens, SK-OV-3, SKOV3, Female GU, read-out: IC50 | Homo sapiens, SK-UT-1, SK-UT-1, Soft Tissue, read-out: IC50 | Homo sapiens, SNB-19, SNB-19, CNS, read-out: IC50 | Homo sapiens, SNU1, SNU-1, Colon/GI, read-out: IC50 | Homo sapiens, SNU-5, SNU-5, Colon/GI, read-out: IC50 | Homo sapiens, SNU-16, SNU-16, Colon/GI, read-out: IC50 | Homo sapiens, SNU-423, SNU-423, Liver, read-out: IC50 | Homo sapiens, ST486, ST486, Haematopoietic and lymphoid, read-out: IC50 | Homo sapiens, SU.86.86, SU.86.86, Pancreas, read-out: IC50 | Homo sapiens, SW13, SW-13, Endocrine, read-out: IC50 | Homo sapiens, SW48, SW48, Colon/GI, read-out: IC50 | Homo sapiens, SW480, SW480, Colon/GI, read-out: IC50 | Homo sapiens, SW684, SW684, Soft Tissue, read-out: IC50 | Homo sapiens, SW837, SW837, Colon/GI, read-out: IC50 | Homo sapiens, SW872, SW872, Soft Tissue, read-out: IC50 | Homo sapiens, SW900, SW900, Lung, read-out: IC50 | Homo sapiens, SW948, SW948, Colon/GI, read-out: IC50 | Homo sapiens, SW 954, SW954, Female GU, read-out: IC50 | Homo sapiens, SW 962, SW962, Female GU, read-out: IC50 | Homo sapiens, SW982, SW982, Soft Tissue, read-out: IC50 | Homo sapiens, SW1088, SW1088, CNS, read-out: IC50 | Homo sapiens, SW1353, SW1353, Soft Tissue, read-out: IC50 | Homo sapiens, SW1417, SW1417, Colon/GI, read-out: IC50 | Homo sapiens, SW1463, SW1463, Colon/GI, read-out: IC50 | Homo sapiens, SW1783, SW1783, CNS, read-out: IC50 | Homo sapiens, SW-403, SW403, Colon/GI, read-out: IC50 | Homo sapiens, SW-620, SW620, Colon/GI, read-out: IC50 | Homo sapiens, SiHa, Female GU, read-out: IC50 | Homo sapiens, T47D, Breast, read-out: IC50 | Homo sapiens, T98G, CNS, read-out: IC50 | Homo sapiens, TCC-SUP, TCCSUP, Bladder, read-out: IC50 | Homo sapiens, THP-1, Thp1, Haematopoietic and lymphoid, read-out: IC50 | Homo sapiens, U2OS, Soft Tissue, read-out: IC50 | Homo sapiens, U138-MG, U-138MG, CNS, read-out: IC50 | Homo sapiens, U-87 MG, CNS, read-out: IC50 | Homo sapiens, UMUC3, UM-UC-3, Bladder, read-out: IC50 | Homo sapiens, WI-38, Wi38, Lung, read-out: IC50 | Homo sapiens, WiDr, Colon/GI, read-out: IC50 | Homo sapiens, YAPC, Pancreas, read-out: IC50 | Hs766T, Hs 766T, Pancreas, read-out: IC50 | J82, Bladder, read-out: IC50 | JAR, Female GU, read-out: IC50 | KHOS-240S, Soft Tissue, read-out: IC50 | KLE, Female GU, read-out: IC50 | KPL-1, KPL-1, Breast, read-out: IC50 | MT-3, Breast, read-out: IC50 | MX1, Haematopoietic and lymphoid, read-out: IC50 | OCUG-1, OCUG-1, Liver, read-out: IC50 | OE21, OE21, Head and Neck, read-out: IC50 | PC-3, Prostate, read-out: IC50 | RD, Soft Tissue, read-out: IC50 | RKO, Colon/GI, read-out: IC50 | RKOAS451, RKO-AS45-1, Colon/GI, read-out: IC50 | SH-4, Skin, read-out: IC50 | SKO-007, SKO-007, Haematopoietic and lymphoid, read-out: IC50 | SR, Haematopoietic and lymphoid, read-out: IC50 | SW579, SW579, Endocrine, read-out: IC50 | T24, Bladder, read-out: IC50 | TE 381.T, Soft Tissue, read-out: IC50 | U266B1, Haematopoietic and lymphoid, read-out: IC50 | Y79, Eye-retinoblastoma, read-out: IC50 | read-out: anti-proliferative IC50 across the panel of 240 cancer cell lines, 2D culture
